Laboratory results reported in US6897049B1, “Proteins producing an altered immunogenic response and methods of making and using the same” (Genencor International, Inc., priority 1998, dated 2005).

Columns and labels:
HLA DQ2 molecules = assay: In vitro binding assays using EBV-transformed B cell lines; set-up: species or system human
naïve human CD4+ T-cells = assay: T-cell proliferation assay with differentiated dendritic cells and naïve human CD4+ T-cells (tritium incorporation); type: cell-based; settings: for T-cell epitope discovered: naïve donors, positive if response at least 3 times baseline
Experimental: Fresh human peripheral blood cells were collected from “naïve” humans, i.e., persons not known to be exposed to or sensitized to Bacillus lentus protease, for determination of antigenic epitopes in protease from Bacillus lentus and human subtilisin. Naïve humans is intended to mean that the individual is not known to have been exposed to or developed a reaction to protease in the past. Peripheral mononuclear blood cells (stored at room temperature, no older than 24 hours) were prepared for use as follows: Approximately 30 mls of a solution of buffy coat preparation from one unit of whole blood was brought to 50 ml with Dulbecco's phosphate buffered solution (DPBS) and split into two tubes. The samples were underlaid with 12.5 ml of room temperature lymphoprep density separation media (Nycomed density 1.077 g/ml). The tubes were centrifuged for thirty minutes at 600 G. The interface of the two phases was collected, pooled and washed in DPBS. The cell density of the resultant solution was measured by hemocytometer. Viability was measured by trypan blue exclusion.
From the resulting solution, a differentiated dendritic cell culture was prepared from the peripheral blood mononuclear cell sample having a density of 10^8 cells per 75 ml culture flask in a solution as follows: • (1) 50 ml of serum free AIM V media (Gibco) was supplemented with a 1:100 dilution beta-mercaptoethanol (Gibco). The flasks were laid flat for two hours at 37° C. in 5% CO2 to allow adherence of monocytes to the flask wall. • (2) Differentiation of the monocyte cells to dendritic cells was as follows: nonadherent cells were removed and the resultant adherent cells (monocytes) combined with 30 ml of AIM V, 800 units/ml of GM-CSF (Endogen) and 500 units/ml of IL-4 (Endogen); the resulting mixture was cultured for 5 days under conditions at 37° C. in 5% CO2. […] Adherent and non-adherent cells were then centrifuged at 600 G for 5 minutes, washed in DPBS and counted. • (4) The prepared dendritic cells were placed into a 96 well round bottom array at 2×10^4/well in 100 microliter total volume of AIM V media.
CD4+ T cells were prepared from frozen aliquots of the peripheral blood cell samples used to prepare the dendritic cells using the human CD4+ Cellect Kit (Biotex) as per the manufacturers instructions with the following modifications: the aliquots were thawed and washed such that approximately […] will be applied per Cellect column; the cells were resuspended in 4 ml DPBS and 1 ml of the Cell reagent from the Cellect Kit, the solution maintained at room temperature for 20 minutes. […] The resultant CD4+ cell solution was centrifuged, resuspended in AIMV media and the density counted. […]

[1] = test system: T-cells of an individual known to be hypersensitive to Bacillus lentus protease; assay: T-cell response to peptides in a sample from an individual hypersensitive to Bacillus lentus protease; type: cell-based, human
From the text: Peptide E05 represents the region corresponding to 170-173 in protease from Bacillus amyloliquefaciens.
Alanine substitutions were used as substitutions for the purpose of determining the role of any specific residue within the epitope. The legend of FIG. 10 refers to the position of the peptide in which an alanine was substituted, i.e., in peptide E06 (sequence GSISYPARYANAMAV (SEQ ID NO: 210)), G to A=2, S to A=3, I to A=4, S to A=5, Y to A=6, P to A=7, R to A=8, Y to A=9, N to A=10, M to A=11 and V to A=12.

| Substance | binding to HLA DQ2 molecules (HLA DQ2 molecules) | T-cell epitope discovered (naïve human CD4+ T-cells) | further results |
| --- | --- | --- | --- |
| 70-84: BPN′ peptide of region 70-84, human T cell epitope (GTVAALNNSIGVLGV; UniProt P00782 177-191, looked up, fragment) [Peptide 70-84] | bound | – | – |
| 109-123: BPN′ peptide of region 109-123, human T cell epitope (NGIEWAIANNMDVIN; UniProt P00782 216-230, looked up, fragment) [Peptide 109-123] | bound | – | – |
| A01: peptide derived from Humicola insolens cellulase (Carezyme); legend: A02, residues 70-84 (PGGVAYSCADQTPWA) [Peptide A01] | – | T-cell epitopes were discovered | – |
| A12: peptide derived from Thermomyces lanuginosa lipase (Lipolase); legend: B02, residues 83-100 (GDVTGFLALDNTNKLIVL) [Peptide A12] | – | T-cell epitopes were discovered | – |
| F06: peptide of Humicola insolens endogluconase, residues 37-51 (SEQ ID NO: 223) (CGWAKKAPVNQPVFS) [Peptide F06] | – | T-cell epitopes were discovered | – |
| GSISYPARYANAMAV [Peptide E05, Bacillus lentus protease peptide with region corresponding to 170-173 of B. amyloliquefaciens protease] | – | – | immunogenic response (T-cell proliferation) to peptide (naïve human CD4+ T-cells; naïve blood samples from unsensitized individuals, response relative to baseline): marked allergenic response; T-cell response to peptide [1]: highly responsive |
